# According to ChEMBL document CHEMBL1201861, “Genomics of Drug Sensitity in Cancer screening data, Wellcome Trust Sanger Institute”:
# What was measured:
# Assay in all cases: cells
# SW872 = format: functional, cell-based, Homo sapiens; conditions: Homo sapiens, SW872;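 further: growth inhibition of SW872 cells, read out by a viability assay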
# Description: SANGER: Inhibition of human SW872 cell growth in a cell viability assay.
# A-431 = format: functional, cell-based, Homo sapiens; conditions: Homo sapiens, A-431;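 further: growth inhibition of A-431 cells, determined with a cell viability read-out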
# Description: SANGER: Inhibition of human A431 cell growth in a cell viability assay.
# NCI-H2228 = format: functional, cell-based, Homo sapiens; conditions: Homo sapiens, NCI-H2228;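 further: growth inhibition of human NCI-H2228 cells, read out by a cell viability assay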
# Description: SANGER: Inhibition of human NCI-H2228 cell growth in a cell viability assay.
# RMG-I = format: functional, cell-based, Homo sapiens; conditions: Homo sapiens, RMG-I;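 further: growth inhibition of human RMG-I cells, read out with a cell viability assay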
# Description: SANGER: Inhibition of human RMG-I cell growth in a cell viability assay.
# NCI-H1770 = format: functional, cell-based; conditions: Homo sapiens;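 further: growth inhibition of NCI-H1770 cells determined with a viability readout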
# Description: SANGER: Inhibition of human NCI-H1770 cell growth in a cell viability assay.
# NCI-H661 = format: functional, cell-based, Homo sapiens; conditions: Homo sapiens, NCI-H661;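 further: cell viability assay read-out, IC50 being the concentration that inhibits growth of the cells by half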
# Description: SANGER: Inhibition of human NCI-H661 cell growth in a cell viability assay.
# COLO-829 = format: functional, cell-based, Homo sapiens; conditions: Homo sapiens, COLO-829
# Description: SANGER: Inhibition of human COLO-829 cell growth in a cell viability assay.
# T47D = format: functional, cell-based, Homo sapiens; conditions: Homo sapiens, T47D;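 further: growth inhibition of human T47D cells, measured with a cell viability assay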
# Description: SANGER: Inhibition of human T47D cell growth in a cell viability assay.
# UACC-257 = format: functional, cell-based, Homo sapiens; conditions: Homo sapiens, UACC-257
# Description: SANGER: Inhibition of human UACC-257 cell growth in a cell viability assay.
# OVCAR-8 = format: functional, cell-based, Homo sapiens; conditions: Homo sapiens, OVCAR-8;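 further: growth inhibition of human OVCAR-8 cells, read out by a cell viability assay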
# Description: SANGER: Inhibition of human OVCAR-8 cell growth in a cell viability assay.
# LNCaP-Clone-FGC = format: functional, cell-based, Homo sapiens; conditions: Homo sapiens, LNCaP-Clone-FGC
# RVH-421 = format: functional, cell-based, Homo sapiens; conditions: Homo sapiens, RVH-421
# Description: SANGER: Inhibition of human RVH-421 cell growth in a cell viability assay.
# BB65-RCC = format: functional, cell-based, Homo sapiens; conditions: Homo sapiens, BB65-RCC;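 further: growth inhibition of the cell line, measured with a cell viability assay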
# Description: SANGER: Inhibition of human BB65-RCC cell growth in a cell viability assay.
# SNU1 = format: functional, cell-based; conditions: Homo sapiens;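 further: growth inhibition of human NCI-SNU-1 cells, measured with a cell viability assay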
# Description: SANGER: Inhibition of human NCI-SNU-1 cell growth in a cell viability assay.
# CaR-1 = format: functional, cell-based, Homo sapiens; conditions: Homo sapiens, CaR-1;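 further: growth inhibition of human CaR-1 cancer cells, read out with a cell viability assay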
# Description: SANGER: Inhibition of human CaR-1 cell growth in a cell viability assay.
# HL-60 = format: functional, cell-based; conditions: Homo sapiens;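 further: growth inhibition of human HL-60 cells, read out with a cell viability assay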
# Description: SANGER: Inhibition of human HL-60 cell growth in a cell viability assay.
# NCI-H1563 = format: functional, cell-based, Homo sapiens; conditions: Homo sapiens, NCI-H1563;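 further: growth inhibition of human NCI-H1563 cells, read out with a cell viability assay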
# Description: SANGER: Inhibition of human NCI-H1563 cell growth in a cell viability assay.
# HT-144 = format: functional, cell-based, Homo sapiens; conditions: Homo sapiens, HT-144
# Description: SANGER: Inhibition of human HT-144 cell growth in a cell viability assay.
# JAR = format: functional, cell-based, Homo sapiens; conditions: Homo sapiens, JAR;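 further: growth inhibition of human JAR cells determined with a cell viability assay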
# HT1197 = format: functional, cell-based, Homo sapiens, HT-1197; conditions: Homo sapiens, HT1197
# Description: SANGER: Inhibition of human HT-1197 cell growth in a cell viability assay.
# TE-5 = format: functional, cell-based, Homo sapiens; conditions: Homo sapiens, TE-5;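 further: inhibition of cell growth, read out by a cell viability assay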
# Description: SANGER: Inhibition of human TE-5 cell growth in a cell viability assay.
# NCI-H209 = format: functional, cell-based; conditions: Homo sapiens;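 further: growth inhibition of human NCI-H209 cells, measured by a cell viability assay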
# Description: SANGER: Inhibition of human NCI-H209 cell growth in a cell viability assay.
# DEL = format: functional, cell-based; conditions: Homo sapiens;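 further: growth inhibition of the human DEL cell line, read out with a cell viability assay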
# Description: SANGER: Inhibition of human DEL cell growth in a cell viability assay.
# UMUC3 = format: functional, cell-based, Homo sapiens; conditions: Homo sapiens, UMUC3;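 further: growth inhibition of human UM-UC-3 cells, read out with a cell viability assay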
# Description: SANGER: Inhibition of human UM-UC-3 cell growth in a cell viability assay.
# SK-HEP1 = format: functional, cell-based, Homo sapiens, SK-HEP-1; conditions: Homo sapiens, SK-HEP1;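 further: cell viability readout used to quantify reduction in proliferation of human SK-HEP-1 cells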
# Description: SANGER: Inhibition of human SK-HEP-1 cell growth in a cell viability assay.
# ACN = format: functional, cell-based, Homo sapiens; conditions: Homo sapiens, ACN;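 further: growth inhibition of the human ACN cell line, read out via cell viability testing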
# Description: SANGER: Inhibition of human ACN cell growth in a cell viability assay.
# TE-8 = format: functional, cell-based, Homo sapiens; conditions: Homo sapiens, TE-8;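 further: growth inhibition of TE-8 cells, measured with a cell viability readout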
# Description: SANGER: Inhibition of human TE-8 cell growth in a cell viability assay.
# no-11 = format: functional, cell-based, Homo sapiens; conditions: Homo sapiens;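 further: growth inhibition of human NO-11 cells, read out with a cell viability assay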
# Description: SANGER: Inhibition of human no-11 cell growth in a cell viability assay.
# HEC-1 = format: functional, cell-based, Homo sapiens; conditions: Homo sapiens, HEC-1;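 further: growth inhibition of the cell line, read out with a cell viability assay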
# Description: SANGER: Inhibition of human HEC-1 cell growth in a cell viability assay.
# CAL-62 = format: functional, cell-based, Homo sapiens; conditions: Homo sapiens, CAL-62;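 further: growth inhibition of CAL-62 cells, read out with a cell viability assay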
# Description: SANGER: Inhibition of human CAL-62 cell growth in a cell viability assay.
# NCI-H526 = format: functional, cell-based; conditions: Homo sapiens;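 further: growth inhibition of the human NCI-H526 cell line, measured by a cell viability assay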
# Description: SANGER: Inhibition of human NCI-H526 cell growth in a cell viability assay.
# DU-4475 = format: functional, cell-based; conditions: Homo sapiens
# Description: SANGER: Inhibition of human DU-4475 cell growth in a cell viability assay.
# HCT-116 = format: functional, cell-based, Homo sapiens; conditions: Homo sapiens, HCT-116
# Description: SANGER: Inhibition of human HCT-116 cell growth in a cell viability assay.
# MZ2-MEL = format: functional, cell-based, Homo sapiens; conditions: Homo sapiens, MZ2-MEL;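 further: growth inhibition of MZ2-MEL cells read out with a cell viability assay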
# Description: SANGER: Inhibition of human MZ2-MEL cell growth in a cell viability assay.
# SK-MEL-1 = format: functional, cell-based; conditions: Homo sapiens;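 further: growth inhibition of human SK-MEL-1 cells, read out by a cell viability assay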
# Description: SANGER: Inhibition of human SK-MEL-1 cell growth in a cell viability assay.
# COLO-684 = format: functional, cell-based; conditions: Homo sapiens
# Description: SANGER: Inhibition of human COLO-684 cell growth in a cell viability assay.
# KARPAS-299 = format: functional, cell-based; conditions: Homo sapiens
# Description: SANGER: Inhibition of human KARPAS-299 cell growth in a cell viability assay.
# ACHN = format: functional, cell-based, Homo sapiens; conditions: Homo sapiens, ACHN;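 further: cell viability read-out used to gauge how strongly growth of human ACHN cells is suppressed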
# Description: SANGER: Inhibition of human ACHN cell growth in a cell viability assay.
# NCI-H650 = format: functional, cell-based, Homo sapiens; conditions: Homo sapiens, NCI-H650;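 further: growth inhibition of NCI-H650 cells, read out by a viability assay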
# Description: SANGER: Inhibition of human NCI-H650 cell growth in a cell viability assay.
# ChaGo-K-1 = format: functional, cell-based; conditions: Homo sapiens;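 further: growth inhibition of ChaGo-K-1 cells, read out with a cell viability assay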
# Description: SANGER: Inhibition of human ChaGo-K-1 cell growth in a cell viability assay.
# NCI-H358 = format: functional, cell-based, Homo sapiens; conditions: Homo sapiens, NCI-H358;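 further: growth inhibition of NCI-H358 human cells, read out with a cell viability assay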
# Description: SANGER: Inhibition of human NCI-H358 cell growth in a cell viability assay.
# PFSK-1 = format: functional, cell-based, Homo sapiens; conditions: Homo sapiens, PFSK-1;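 further: cell viability assay measuring how strongly compounds suppress growth of human PFSK-1 cells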
# Description: SANGER: Inhibition of human PFSK-1 cell growth in a cell viability assay.
# NCI-H1693 = format: functional, cell-based, Homo sapiens; conditions: Homo sapiens, NCI-H1693;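 further: growth inhibition of the human cell line, read out with a cell viability assay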
# Description: SANGER: Inhibition of human NCI-H1693 cell growth in a cell viability assay.
# S-117 = format: functional, cell-based, Homo sapiens; conditions: Homo sapiens, S-117
# Description: SANGER: Inhibition of human S-117 cell growth in a cell viability assay.
# C3A = format: functional, cell-based, Homo sapiens; conditions: Homo sapiens, C3A;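 further: growth inhibition of C3A human cells, quantified with a cell viability readout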
# Description: SANGER: Inhibition of human C3A cell growth in a cell viability assay.
# Calu-3 = format: functional, cell-based, Homo sapiens; conditions: Homo sapiens, Calu-3;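 further: growth inhibition of human Calu-3 cells, determined with a cell viability assay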
# Description: SANGER: Inhibition of human Calu-3 cell growth in a cell viability assay.
# BEN = format: functional, cell-based, Homo sapiens; conditions: Homo sapiens, BEN;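 further: growth inhibition of the BEN cell line, read out with a cell viability assay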
# Description: SANGER: Inhibition of human BEN cell growth in a cell viability assay.
# HPAF-II = format: functional, cell-based, Homo sapiens; conditions: Homo sapiens, HPAF-II;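 further: growth inhibition of HPAF-II cells, read out with a cell viability assay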
# Description: SANGER: Inhibition of human HPAF-II cell growth in a cell viability assay.
# NCI-H23 = format: functional, cell-based, Homo sapiens; conditions: Homo sapiens, NCI-H23;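 further: cell viability assay measuring growth inhibition of NCI-H23 cells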
# SK-LMS-1 = format: functional, cell-based, Homo sapiens; conditions: Homo sapiens, SK-LMS-1;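 further: growth inhibition of human SK-LMS-1 cells, read out with a cell viability assay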
# Description: SANGER: Inhibition of human SK-LMS-1 cell growth in a cell viability assay.
# D-542MG = format: functional, cell-based, Homo sapiens; conditions: Homo sapiens, D-542MG
# Description: SANGER: Inhibition of human D-542MG cell growth in a cell viability assay.
compound,measurement,setting,value
COc1ccc(-c2ccc3c(N4CCOC[C@@H]4C)nc(N4CCOC[C@@H]4C)nc3n2)cc1CO [AZD-8055],IC50,SW872,1390 nM
same,IC50,A-431,831 nM
same,IC50,NCI-H2228,1270 nM
same,IC50,RMG-I,> 2000 nM
same,IC50,NCI-H1770,802 nM
same,IC50,NCI-H661,1450 nM
same,IC50,COLO-829,> 2000 nM
same,IC50,T47D,275 nM
same,IC50,UACC-257,> 2000 nM
same,IC50,OVCAR-8,> 2000 nM
same,IC50,LNCaP-Clone-FGC,353 nM
same,IC50,RVH-421,636 nM
same,IC50,BB65-RCC,308 nM
same,IC50,SNU1,323 nM
same,IC50,CaR-1,1750 nM
same,IC50,HL-60,604 nM
same,IC50,NCI-H1563,789 nM
same,IC50,HT-144,1170 nM
same,IC50,JAR,> 2000 nM
same,IC50,HT1197,> 2000 nM
same,IC50,TE-5,684 nM
same,IC50,NCI-H209,54.5 nM
same,IC50,DEL,968 nM
same,IC50,UMUC3,1480 nM
same,IC50,SK-HEP1,> 2000 nM
same,IC50,ACN,943 nM
same,IC50,TE-8,1460 nM
same,IC50,no-11,> 2000 nM
same,IC50,HEC-1,1180 nM
same,IC50,CAL-62,799 nM
same,IC50,NCI-H526,> 2000 nM
same,IC50,DU-4475,80.5 nM
same,IC50,HCT-116,1430 nM
same,IC50,MZ2-MEL,409 nM
same,IC50,SK-MEL-1,> 2000 nM
same,IC50,COLO-684,457 nM
same,IC50,KARPAS-299,> 2000 nM
same,IC50,ACHN,1910 nM
same,IC50,NCI-H650,791 nM
same,IC50,ChaGo-K-1,> 2000 nM
same,IC50,NCI-H358,> 2000 nM
same,IC50,PFSK-1,830 nM
same,IC50,NCI-H1693,1980 nM
same,IC50,S-117,> 2000 nM
same,IC50,C3A,> 2000 nM
same,IC50,Calu-3,1650 nM
same,IC50,BEN,213 nM
same,IC50,HPAF-II,808 nM
same,IC50,NCI-H23,1560 nM
CN(Cc1cnc2nc(N)nc(N)c2n1)c1ccc(C(=O)N[C@@H](CCC(=O)O)C(=O)O)cc1 [METHOTREXATE],IC50,SW872,> 200 nM
same,IC50,A-431,> 200 nM
same,IC50,NCI-H2228,> 200 nM
same,IC50,RMG-I,> 200 nM
same,IC50,NCI-H1770,1.98 nM
same,IC50,NCI-H661,> 200 nM
same,IC50,COLO-829,> 200 nM
same,IC50,T47D,> 200 nM
same,IC50,UACC-257,> 200 nM
same,IC50,OVCAR-8,> 200 nM
same,IC50,LNCaP-Clone-FGC,> 200 nM
same,IC50,RVH-421,> 200 nM
same,IC50,BB65-RCC,> 200 nM
same,IC50,SNU1,7.51 nM
same,IC50,CaR-1,> 200 nM
same,IC50,HL-60,24.8 nM
same,IC50,NCI-H1563,> 200 nM
same,IC50,HT-144,> 200 nM
same,IC50,JAR,188 nM
same,IC50,HT1197,> 200 nM
same,IC50,TE-5,> 200 nM
same,IC50,NCI-H209,> 200 nM
same,IC50,DEL,3.12 nM
same,IC50,UMUC3,> 200 nM
same,IC50,SK-HEP1,> 200 nM
same,IC50,ACN,> 200 nM
same,IC50,TE-8,> 200 nM
same,IC50,no-11,> 200 nM
same,IC50,HEC-1,> 200 nM
same,IC50,CAL-62,> 200 nM
same,IC50,NCI-H526,0.691 nM
same,IC50,HCT-116,> 200 nM
same,IC50,MZ2-MEL,> 200 nM
same,IC50,SK-MEL-1,> 200 nM
same,IC50,COLO-684,37.5 nM
same,IC50,KARPAS-299,> 200 nM
same,IC50,ACHN,85.3 nM
same,IC50,NCI-H650,> 200 nM
same,IC50,ChaGo-K-1,> 200 nM
same,IC50,NCI-H358,> 200 nM
same,IC50,PFSK-1,> 200 nM
same,IC50,NCI-H1693,> 200 nM
same,IC50,S-117,> 200 nM
same,IC50,C3A,> 200 nM
same,IC50,Calu-3,> 200 nM
same,IC50,BEN,> 200 nM
same,IC50,HPAF-II,> 200 nM
same,IC50,NCI-H23,> 200 nM
CNC(=O)c1cc(Oc2ccc(NC(=O)Nc3ccc(Cl)c(C(F)(F)F)c3)cc2)ccn1 [SORAFENIB],IC50,SW872,> 4000 nM
same,IC50,NCI-H1770,> 4000 nM
same,IC50,SK-LMS-1,> 4000 nM
same,IC50,COLO-829,> 4000 nM
same,IC50,UACC-257,> 4000 nM
same,IC50,LNCaP-Clone-FGC,> 4000 nM
same,IC50,BB65-RCC,471 nM
same,IC50,SNU1,2320 nM
same,IC50,HL-60,3060 nM
same,IC50,D-542MG,> 4000 nM
same,IC50,HT-144,> 4000 nM
same,IC50,JAR,> 4000 nM
same,IC50,TE-5,3130 nM
same,IC50,NCI-H209,> 4000 nM
same,IC50,DEL,> 4000 nM
same,IC50,ACN,> 4000 nM
same,IC50,TE-8,> 4000 nM
same,IC50,no-11,> 4000 nM
same,IC50,NCI-H526,> 4000 nM
same,IC50,DU-4475,> 4000 nM
same,IC50,MZ2-MEL,> 4000 nM
same,IC50,SK-MEL-1,> 4000 nM
same,IC50,COLO-684,> 4000 nM
same,IC50,KARPAS-299,> 4000 nM
same,IC50,NCI-H23,> 4000 nM
